Source: patent US11111242B2, “Pyrrolo[2,3-d]pyrimidinyl, pyrrolo[2,3-b]pyrazinyl and pyrrolo[2,3-d]pyridinyl acrylamides” (Pfizer Inc., priority 2013, dated 2021)

What follows are compounds tested on IL-15 induced P-STAT5 in human PBMC (total lymphocytes) (assay: PBMC IL-15 Induced P-STAT5). Details: Homo sapiens, PBMC, IL-15 stimulated, read-out: PBMC IL15-pSTAT5 IC50.
Type: cell-based
Protocol: PBMC IL-15 Induced P-STAT5
Frozen human PBMC (200-250 million cells/vial) was thawed at 37° C. The cells were transferred to 10 mL warm medium in a 50-mL conical tube, and centrifuged at 1,200 RPM at room temperature for 5 min. The supernatant was aspirated. […] After adding 47 ml D-PBS (37° C.) to PBMC/FBS suspension, centrifuging at 1,200 RPM at room temperature for 5 min, and aspirating the supernatant, the cells were resuspended in 20 mL warm RPMI medium. Ninety μL of cell suspension were pipetted per well in a 96-well, deep-well, V-bottom plate, and the plate was incubated at 37° C. for 30 min. […] After adding 0.8 mL staining buffer per well, the plates were centrifuged at 1,200 RPM (Beckman GS-6R or Sorvall Legend) at room temperature for 5 min, and again the supernatant was aspirated using a 8-channel or 12-channel manifold. The plate was vortexed, and 0.35 mL 90% methanol/10% H2O (−20° C.) was added per well, and the plate incubated on ice for 20 min. After again adding 0.8 mL staining buffer per well, the plates were centrifuged at 1,200 RPM (Beckman GS-6R or Sorvall Legend) at room temperature for 5 min, and again the supernatant was aspirated using a 8-channel or 12-channel manifold, and then 0.8 mL Staining buffer was added per well. After once again adding 0.8 mL staining buffer per well, the plates were centrifuged at 1,200 RPM (Beckman GS-6R or Sorvall Legend) at room temperature for 5 min, and again the supernatant was aspirated using a 8-channel or 12-channel manifold. […] Samples of 250 μL/well were transferred to a 96-well U-bottom plate, and the FACS analysis was performed gating on total lymphocytes. Samples were analyzed using a BD Calibur™ or BD FACSCanto™ flow cytometer equipped with the BD High Throughput Sampler.
`C=CC(=O)N1CC[C@H]2CCN(c3ncnc4[nH]ccc34)[C@H]2C1` (racemic) [Example 21, rac-1-((3aR,7aR)-1-(7H-Pyrrolo[2,3-d]pyrimidin-4-yl)hexahydro-1H-pyrrolo[2,3-c]pyridin-6(2H)-yl)prop-2-en-1-one] was tested, and the IC50 was 236 nM.
`C=CC(=O)N1CCC[C@@H](Nc2ncnc3[nH]cc(-c4cccnc4)c23)C1` [Example 26, 1-[(3R)-3-{[5-(pyridin-3-yl)-7H-pyrrolo[2,3-d]pyrimidin-4-yl]amino}piperidin-1-yl]prop-2-en-1-one] gave an IC50 of 254 nM.
`C=CC(=O)N1CCC[C@@H](Nc2ncnc3[nH]cc(-c4ccc(C(=O)N(C)C)cc4)c23)C1` [Example 27, 4-(4-{[(3R)-1-acryloylpiperidin-3-yl]amino}-7H-pyrrolo[2,3-d]pyrimidin-5-yl)-N,N-dimethylbenzamide] gave an IC50 of 1870 nM.
`C=C(C(=O)N1CC[C@@H]2CCN(c3ncnc4[nH]ccc34)[C@@H]2C1)C(F)(F)F` [Example 41, 1-((3aS,7aS)-1-(7H-Pyrrolo[2,3-d]pyrimidin-4-yl)hexahydro-1H-pyrrolo[2,3-c]pyridin-6(2H)-yl)-2-(trifluoromethyl)prop-2-en-1-one] was tested, and the IC50 was 446 nM.
In the case of `C#Cc1c[nH]c2ncnc(N3CC[C@H]4CCN(C(=O)C=C)C[C@H]43)c12` [Example 48, 1-[(3aS,7aS)-1-(5-ethynyl-7H-pyrrolo[2,3-d]pyrimidin-4-yl)octahydro-6H-pyrrolo[2,3-c]pyridin-6-yl]prop-2-en-1-one], the IC50 is reported as 65.2 nM.
`C=CC(=O)N1CCC[C@@H](Nc2nc(Nc3cccnc3)nc3[nH]ccc23)C1` [Example 63, 1-[(3R)-3-{[2-(Pyridin-3-ylamino)-7H-pyrrolo[2,3-d]pyrimidin-4-yl]amino}piperidin-1-yl]prop-2-en-1-one] was tested, and the IC50 was 1380 nM.
For `C=CC(=O)N1CC(Nc2ncnc3[nH]ccc23)CCC1(C)C` (centres unmarked) [Example 67, 1-(5-((7H-Pyrrolo[2,3-d]pyrimidin-4-yl)amino)-2,2-dimethylpiperidin-1-yl)prop-2-en-1-one], the IC50 was 6900 nM.
For `C=CC(=O)N1CCC[C@](C)(Nc2ncnc3[nH]ccc23)C1` [Example 70, (S)-1-(3-((7H-Pyrrolo[2,3-d]pyrimidin-4-yl)amino)-3-methylpiperidin-1-yl)prop-2-en-1-one], the IC50 was 5530 nM.
`C=CC(=O)N1CC[C@@H]2CN(c3cnc4[nH]cc(C(=O)NC(C)C)c4n3)C[C@@H]21` [Example 170, 2-[(3aR,6aR)-1-acryloylhexahydropyrrolo[3,4-b]pyrrol-5(1H)-yl]-N-(propan-2-yl)-5H-pyrrolo[2,3-b]pyrazine-7-carboxamide] gave an IC50 of 1370 nM.
In the case of `C=CC(=O)N[C@H]1C[C@@H](Nc2cnc3[nH]cc(C(=O)NC(C)C)c3n2)C1` [Example 184, 2-{[cis-3-(acryloylamino)cyclobutyl]amino}-N-(propan-2-yl)-5H-pyrrolo[2,3-b]pyrazine-7-carboxamide], the IC50 is reported as 3410 nM.
With `C=CC(=O)N(C)C1CN(c2cnc3[nH]cc(C(=O)NC(C)C)c3n2)C1` [Example 187, 2-{3-[acryloyl(methyl)amino]azetidin-1-yl}-N-(propan-2-yl)-5H-pyrrolo[2,3-b]pyrazine-7-carboxamide] the IC50 was 710 nM.
Compound `C=CC(=O)N[C@H]1C[C@H](Nc2cnc3[nH]cc(C(=O)NC(C)C)c3n2)C1` [Example 198, 2-{[trans-3-(acryloylamino)cyclobutyl]amino}-N-(propan-2-yl)-5H-pyrrolo[2,3-b]pyrazine-7-carboxamide] has an IC50 of 1170 nM.
`C=CC(=O)N1CCC(Nc2cnc3[nH]cc(-c4ccc(C)nc4)c3n2)CC1` [Example 199, 1-(4-{[7-(6-methylpyridin-3-yl)-5H-pyrrolo[2,3-b]pyrazin-2-yl]amino}piperidin-1-yl)prop-2-en-1-one] was tested, and the IC50 was 735 nM.

Same assay, conditions: IL-15 stimulated, read-out: PBMC IL15-pSTAT5 IC50
For `C=CC(=O)N1C[C@H](C)C[C@@H](Nc2ncnc3[nH]ccc23)C1` (racemic) [Example 65, Rac-1-((3R,5R)-3-((7H-Pyrrolo[2,3-d]pyrimidin-4-yl)amino)-5-methylpiperidin-1-yl)prop-2-en-1-one], the IC50 was 3740 nM.
For `C=CC(=O)N1C[C@H](Nc2ncnc3[nH]ccc23)CC[C@@H]1C` [Example 5, 1-((2S,5R)-5-((7H-pyrrolo[2,3-d]pyrimidin-4-yl)amino)-2-methylpiperidin-1-yl)prop-2-en-1-one], the IC50 was 51.7 nM.
With `C=CC(=O)N1CCC[C@@H](Nc2ncnc3[nH]cc(CC#N)c23)C1` [Example 20, (R)-2-(4-((1-Acryloylpiperidin-3-yl)amino)-7H-pyrrolo[2,3-d]pyrimidin-5-yl)acetonitrile] the IC50 was 362 nM.
With `C=CC(=O)N1CCC[C@@H](Nc2ncnc3[nH]cc(-c4cncc(F)c4)c23)C1` [Example 23, 1-[(3R)-3-{[5-(5-fluoropyridin-3-yl)-7H-pyrrolo[2,3-d]pyrimidin-4-yl]amino}piperidin-1-yl]prop-2-en-1-one] the IC50 was 188 nM.
Work on `C=CC(=O)N1CCC[C@@H](Nc2ncnc3[nH]cc(-c4cncc(OC)c4)c23)C1` [Example 24, 1-[(3R)-3-{[5-(5-methoxypyridin-3-yl)-7H-pyrrolo[2,3-d]pyrimidin-4-yl]amino}piperidin-1-yl]prop-2-en-1-one] yielded an IC50 of 320 nM.
Work on `C=CC(=O)N1CCC[C@@H](Nc2ncnc3[nH]cc(-c4ccccc4O)c23)C1` [Example 25, 1-[(3R)-3-{[5-(2-hydroxyphenyl)-7H-pyrrolo[2,3-d]pyrimidin-4-yl]amino}piperidin-1-yl]prop-2-en-1-one] yielded an IC50 of 84 nM.
`C=CC(=O)N1CCC[C@@H](Nc2ncnc3[nH]cc(-c4ccc(C(=O)NC(C)C)cc4)c23)C1` [Example 29, 4-(4-{[(3R)-1-acryloylpiperidin-3-yl]amino}-7H-pyrrolo[2,3-d]pyrimidin-5-yl)-N-(propan-2-yl)benzamide] was tested, and the IC50 was 464 nM.
In the case of `C=CC(=O)N1CCC[C@@H](Nc2ncnc3[nH]cc(CCO)c23)C1` [Example 55, (R)-1-(3-((5-(2-Hydroxyethyl)-7H-pyrrolo[2,3-d]pyrimidin-4-yl)amino)piperidin-1-yl)prop-2-en-1-one], the IC50 is reported as 430 nM.
Work on `C=CC(=O)N1C[C@H](Nc2ncnc3[nH]ccc23)C[C@@H](OC)C1` [Example 77, 1-[(3R,5R)-3-Methoxy-5-(7H-pyrrolo[2,3-d]pyrimidin-4-ylamino)piperidin-1-yl]prop-2-en-1-one] yielded an IC50 of 3970 nM.
`C=CC(=O)N1C[C@H](Nc2ncnc3[nH]cc(C(N)=O)c23)CC[C@@H]1C` [Example 164, 4-{[(3R,6S)-1-Acryloyl-6-methylpiperidin-3-yl]amino}-7H-pyrrolo[2,3-d]pyrimidine-5-carboxamide] showed an IC50 of 1650 nM.
With `C=CC(=O)N1C[C@@H]2C(Nc3cnc4[nH]cc(C(=O)NC(C)C)c4n3)[C@@H]2C1` (stereo partly drawn) [Example 189, 2-{[(1R,5S,6s)-3-acryloyl-3-azabicyclo[3.1.0]hex-6-yl]amino}-N-(propan-2-yl)-5H-pyrrolo[2,3-b]pyrazine-7-carboxamide] the IC50 was 1740 nM.
With `C=CC(=O)N1CCC(Nc2cnc3[nH]cc(-c4ccncc4F)c3n2)CC1` [Example 200, 1-(4-{[7-(3-fluoropyridin-4-yl)-5H-pyrrolo[2,3-b]pyrazin-2-yl]amino}piperidin-1-yl)prop-2-en-1-one] the IC50 was 819 nM.
For `C=CC(=O)N1CCC(Nc2cnc3[nH]cc(-c4ccc(S(C)(=O)=O)cc4)c3n2)CC1` [Example 203, 1-[4-({7-[4-(methylsulfonyl)phenyl]-5H-pyrrolo[2,3-b]pyrazin-2-yl}amino)piperidin-1-yl]prop-2-en-1-one], the IC50 was 1180 nM.
